Source: patent US4822818A, “Bicycle compounds, their production and use” (Takeda Chemical Industries, Ltd., priority 1980, dated 1989)
Counter-ions that a name gives are not always drawn.

Tests used:
[1] = molecular target: T1, Angiotensin I Converting Enzyme (ACE) (Oryctolagus cuniculus, UniProt P12822); assay: Inhibition of Angiotensin I Converting Enzyme (ACE), substrate hippuryl-L-histidyl-L-leucine (HHL), hippuric acid produced; type: biochemical; conditions: pH 8.3, 37° C., one hour, read-out: Inhibitory Activity on ACE; for inhibition at 1 µM: Concentration 1 μM; for inhibition at 10 µM: Concentration 10 μM
T1 sequence (P12822 34-1310): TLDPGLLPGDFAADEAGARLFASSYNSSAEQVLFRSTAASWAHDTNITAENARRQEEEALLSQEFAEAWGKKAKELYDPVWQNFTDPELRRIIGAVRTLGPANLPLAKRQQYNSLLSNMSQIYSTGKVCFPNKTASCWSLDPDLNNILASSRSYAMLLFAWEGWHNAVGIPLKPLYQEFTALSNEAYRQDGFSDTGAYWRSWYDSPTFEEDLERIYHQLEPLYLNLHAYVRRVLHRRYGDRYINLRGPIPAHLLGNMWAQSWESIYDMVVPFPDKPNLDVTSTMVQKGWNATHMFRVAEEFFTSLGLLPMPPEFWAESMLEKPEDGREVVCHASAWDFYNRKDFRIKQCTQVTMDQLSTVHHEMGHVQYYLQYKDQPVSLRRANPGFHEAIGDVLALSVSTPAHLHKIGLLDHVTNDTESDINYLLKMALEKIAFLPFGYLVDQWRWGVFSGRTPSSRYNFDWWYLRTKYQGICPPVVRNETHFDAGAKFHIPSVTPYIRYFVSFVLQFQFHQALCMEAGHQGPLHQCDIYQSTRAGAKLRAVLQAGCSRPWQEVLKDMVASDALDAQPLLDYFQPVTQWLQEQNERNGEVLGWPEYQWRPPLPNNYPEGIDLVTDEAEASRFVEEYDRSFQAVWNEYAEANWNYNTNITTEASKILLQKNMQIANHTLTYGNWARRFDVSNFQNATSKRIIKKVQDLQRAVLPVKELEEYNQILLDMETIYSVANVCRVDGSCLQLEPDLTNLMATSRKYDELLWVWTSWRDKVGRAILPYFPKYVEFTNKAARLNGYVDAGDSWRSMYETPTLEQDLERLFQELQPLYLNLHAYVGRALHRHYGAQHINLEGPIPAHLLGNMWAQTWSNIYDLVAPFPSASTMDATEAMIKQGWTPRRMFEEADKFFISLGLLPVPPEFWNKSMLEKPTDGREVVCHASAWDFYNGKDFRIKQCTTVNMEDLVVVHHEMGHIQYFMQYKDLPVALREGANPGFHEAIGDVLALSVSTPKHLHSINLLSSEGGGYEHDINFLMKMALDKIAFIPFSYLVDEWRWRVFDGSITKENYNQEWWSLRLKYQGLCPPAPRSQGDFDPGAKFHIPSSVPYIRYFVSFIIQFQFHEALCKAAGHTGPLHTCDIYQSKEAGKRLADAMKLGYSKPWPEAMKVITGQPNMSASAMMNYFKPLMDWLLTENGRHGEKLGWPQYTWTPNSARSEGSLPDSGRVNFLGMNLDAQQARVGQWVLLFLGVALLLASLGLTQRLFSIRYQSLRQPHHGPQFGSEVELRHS
Experimental: Inhibitions of Angiotensin I Converting Enzyme (ACE) by the Compounds of this Invention. The experiment was conducted in accordance with a modification of the method described by Cushman et al. [Biochemical Pharmacology, Vol. 20, 1637(1971)]. That is, using hippuryl-L-histidyl-L-leucine(HHL) as the substrate, the ACE inhibitory activity was determined in terms of percent inhibition on the amount of hippuric acid produced by ACE when the present compound was added. […] In this experiment, a potassium phosphate buffer solution containing dimethyl sulfoxide at a concentration equal to that of the test solution was used as a control. After incubating the solution at 37° C. for one hour, 150 μl of 1N hydrochloric acid was added to the solution to terminate the reaction. After 1 ml of ethyl acetate was added, the solution was centrifuged at 3000 r.p.m. for 10 minutes. A 0.5 ml aliquot was separated from the ethyl acetate layer and dried at a temperature below 50° C. under nitrogen gas streams. The residue was mixed with 5 ml of 1M aqueous sodium chloride and the mixture was subjected to colorimetry at a wavelength of 228 nm.

Angiotensin I = assay: Effect of present compounds against hypertensive activity of angiotensin I in rats, oral administration; type: in vivo, Male rats (Sprague-Dawley); conditions: rat, oral 13.8 μM/kg, angiotensin I 300 ng/kg i.v., corrected by angiotensin II reaction; for Percent Inhibition against Hypertensive Reaction by Angiotensin I, After 20 min.: 20 min after administration; for Percent Inhibition against Hypertensive Reaction by Angiotensin I, After 60 min.: 60 min after administration; for Percent Inhibition against Hypertensive Reaction by Angiotensin I, After 120 min.: 120 min after administration
Experimental: Effect of Present Compounds against Hypertensive Activity of Angiotensin I
Male rats (Sprague-Dawley) weighing 250 g to 350 g which were fed under free access to drinking water and feeds were used as experimental animals. The rats were anesthetized with intraperitoneal administration of pentobarbital sodium (50 mg/kg) on the day before the test day and a polyethylene tube was inserted into each of the femoral artery for measurement of blood pressure and the femoral vein for injection of angiotensin I and II, and then the tubes were fixed.
On the test day, an average blood pressure in the control phase was recorded on an electric hemodynamometer (MP-4T model manufactured by Nippon Koden, Japan) and thereafter angiotensin I and then angiotensin II were injected through the femoral vein at a dose of 300 ng/kg and 100 ng/kg respectively, to measure the hypertensive activity. Then, 13.8 μM/kg of the compound of this invention was administered orally as an aqueous solution or an aqueous gum arabic suspension, and 20, 60 and 120 minutes after the administration, angiotensin I and II were injected repeatedly to trace hypertensive reactions. In calculating the percent inhibition to the hypertensive activity of angiotensin I, the percent inhibitory value was corrected based on the variation with time in the hypertensive reaction by angiotensin II.

Structure (SMILES) | inhibition at 1 µM [1] | inhibition at 10 µM [1] | Percent Inhibition against Hypertensive Reaction by Angiotensin I, After 20 min. (Angiotensin I) | Percent Inhibition against Hypertensive Reaction by Angiotensin I, After 60 min. (Angiotensin I) | Percent Inhibition against Hypertensive Reaction by Angiotensin I, After 120 min. (Angiotensin I)
CCCOC(=O)C(CCc1ccccc1)N[C@@H](C)C(=O)N(CC(=O)O)C1Cc2ccccc2C1.Cl (stereo partly drawn) [Example 7, N-(1-propoxycarbonyl-3-phenylpropyl)-L-alanyl-N-(indan-2-yl)glycine hydrochloride] | 91% | 97% | 84% | 91% | 96%
C[C@H](N[C@@H](CCc1ccccc1)C(=O)O)C(=O)N(CC(=O)O)C1Cc2ccccc2C1 [Example 19, N-(1-(S)-carboxyl-3-phenylpropyl)-L-alanyl-N-(indan-2-yl)glycine] | 95% | 98% |  |  | 
CC(C)OC(=O)C(CCc1ccccc1)N[C@@H](C)C(=O)N(CC(=O)O)C1Cc2ccccc2C1.Cl (stereo partly drawn) [Example 9, N-(1-isopropoxycarbonyl-3-phenylpropyl)-L-alanyl-N-(indan-2-yl)glycine hydrochloride] | 72% | 95% | 88% | 71% | 51%
CCOC(=O)[C@H](CCc1ccc(OC)c(OC)c1)N[C@@H](C)C(=O)N(CC(=O)O)C1Cc2ccccc2C1.Cl [Example 15, N-[1-(S)-ethoxycarbonyl-3-(3,4-dimethoxyphenyl)propyl]-L-alanyl-N-(indan-2-yl)glycine hydrochloride] |  |  | 84% | 80% | 65%
CCCCOC(=O)C(CCc1ccccc1)N[C@@H](C)C(=O)N(CC(=O)O)C1Cc2ccccc2C1 (stereo partly drawn) [Example 8, N-(1-butoxycarbonyl-3-phenylpropyl)-L-alanyl-N-(indan-2-yl)glycine hydrochloride] | 69% | 99% |  |  | 
CCOC(=O)C(CCc1ccccc1)N[C@@H](C)C(=O)N(CC(=O)O)C1Cc2ccccc2C1.Cl (stereo partly drawn) [Example 1, N-(1-ethoxycarbonyl-3-phenylpropyl)-L-alanyl-N-(indan-2-yl)glycine hydrochloride] | 87% | 97% | 93% | 88% | 77%
